Legend:
Type in all cases: in vivo
Details in all cases: treatment dosage 315 g/ha
redroot pigweed [1] = test: Test Example 3: weedkilling efficacy through soil treatment; L: redroot pigweed
Method in brief: (§1)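 Crop and weed responses were judged three weeks after a uniform surface spray of the water-diluted emulsion at the given g/ha rate. Seeds sat beneath about 1.5 cm of sterilized diluvial soil, and boxes stood in a greenhouse at 25 to 30° C.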

Italian ryegrass [2] = test: Test Example 3: weedkilling efficacy through soil treatment; I: Italian ryegrass
Method in brief: as §1

chickweed [3] = test: Test Example 3: weedkilling efficacy through soil treatment; N: chickweed
Method in brief: as §1

black-grass [4] = test: Test Example 3: weedkilling efficacy through soil treatment; H: black-grass
Method in brief: as §1

Indian mallow [5] = test: Test Example 3: weedkilling efficacy through soil treatment; K: Indian mallow
Method in brief: as §1

catchweed = test: Test Example 4: weedkilling efficacy by foliar treatment; O: catchweed
Method in brief: (§2)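 Seeds are spot-sown into sterilized diluvial soil and covered with about 1.5 cm of soil. After 14 days' greenhouse growth at 25 to 30° C, plants are sprayed on stems and leaves with diluted emulsion at the stated g/ha rate, then scored at 3 weeks.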

birds-eye speedwell [6] = test: Test Example 3: weedkilling efficacy through soil treatment; p: birds-eye speedwell
Method in brief: as §1

wild oat [7] = test: Test Example 4: weedkilling efficacy by foliar treatment; G: wild oat
Method in brief: as §2

barnyard grass [8] = test: Test Example 1: weedkilling efficacy, preemergent weed treatment in the submerged state; A: barnyard grass
Method in brief: (§3)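 Pre-emergence paddy test: weed seeds sown in submerged alluvial soil (4 cm water), 2.5-leaf rice transplanted, water-diluted emulsion applied to water surface at sowing at stated g/ha. Scored at 3 weeks, greenhouse 25–30 °C.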

directly sown rice [9] = test: Test Example 3: soil treatment, effect on crop; b: directly sown rice
Method in brief: as §1

transplanted rice = test: Test Example 1: preemergent weed treatment in the submerged state, effect on crop; a: transplanted rice
Method in brief: as §3

wheat [10] = test: Test Example 3: soil treatment, effect on crop; e: wheat
Method in brief: as §1

wild oat [11] = test: Test Example 3: weedkilling efficacy through soil treatment; G: wild oat
Method in brief: as §1

barnyard grass [12] = test: Test Example 4: weedkilling efficacy by foliar treatment; F: barnyard grass
Method in brief: as §2

green foxtail [13] = test: Test Example 3: weedkilling efficacy through soil treatment; E: green foxtail
Method in brief: as §1

common wind-grass [14] = test: Test Example 3: weedkilling efficacy through soil treatment; J: common wind-grass
Method in brief: as §1

Indian mallow [15] = test: Test Example 4: weedkilling efficacy by foliar treatment; K: Indian mallow
Method in brief: as §2

corn [16] = test: Test Example 3: soil treatment, effect on crop; c: corn
Method in brief: as §1

wheat [17] = test: Test Example 4: foliar treatment, effect on crop; e: wheat
Method in brief: as §2

crabgrass [18] = test: Test Example 4: weedkilling efficacy by foliar treatment; D: crabgrass
Method in brief: as §2

redroot pigweed [19] = test: Test Example 4: weedkilling efficacy by foliar treatment; L: redroot pigweed
Method in brief: as §2

rapeseed [20] = test: Test Example 4: foliar treatment, effect on crop; g: rapeseed
Method in brief: as §2

birds-eye speedwell [21] = test: Test Example 4: weedkilling efficacy by foliar treatment; p: birds-eye speedwell
Method in brief: as §2

beet [22] = test: Test Example 4: foliar treatment, effect on crop; f: beet
Method in brief: as §2

directly sown rice [23] = test: Test Example 4: foliar treatment, effect on crop; b: directly sown rice
Method in brief: as §2

chickweed [24] = test: Test Example 4: weedkilling efficacy by foliar treatment; N: chickweed
Method in brief: as §2

Italian ryegrass [25] = test: Test Example 4: weedkilling efficacy by foliar treatment; I: Italian ryegrass
Method in brief: as §2

oval-leafed pondweed [26] = test: Test Example 2: weedkilling efficacy, growth period weed treatment in the submerged state; C: oval-leafed pondweed
Method in brief: (§4)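 Seedlings at 1-2 leaves in 4 cm-deep submerged alluvial soil received emulsion formulations on the water surface, dosed per hectare; effects were judged 3 weeks on.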

black-grass [27] = test: Test Example 4: weedkilling efficacy by foliar treatment; H: black-grass
Method in brief: as §2

common wind-grass [28] = test: Test Example 4: weedkilling efficacy by foliar treatment; J: common wind-grass
Method in brief: as §2

barnyard grass [29] = test: Test Example 3: weedkilling efficacy through soil treatment; F: barnyard grass
Method in brief: as §1

rapeseed [30] = test: Test Example 3: soil treatment, effect on crop; g: rapeseed
Method in brief: as §1

green foxtail [31] = test: Test Example 4: weedkilling efficacy by foliar treatment; E: green foxtail
Method in brief: as §2

barnyard grass [32] = test: Test Example 2: weedkilling efficacy, growth period weed treatment in the submerged state; A: barnyard grass
Method in brief: as §4

beet [33] = test: Test Example 3: soil treatment, effect on crop; f: beet
Method in brief: as §1

oval-leafed pondweed [34] = test: Test Example 1: weedkilling efficacy, preemergent weed treatment in the submerged state; C: oval-leafed pondweed
Method in brief: as §3

crabgrass [35] = test: Test Example 3: weedkilling efficacy through soil treatment; D: crabgrass
Method in brief: as §1

bulrush [36] = test: Test Example 2: weedkilling efficacy, growth period weed treatment in the submerged state; B: bulrush
Method in brief: as §4

soybean [37] = test: Test Example 4: foliar treatment, effect on crop; d: soybean
Method in brief: as §2

soybean [38] = test: Test Example 3: soil treatment, effect on crop; d: soybean
Method in brief: as §1

bulrush [39] = test: Test Example 1: weedkilling efficacy, preemergent weed treatment in the submerged state; B: bulrush
Method in brief: as §3

corn [40] = test: Test Example 4: foliar treatment, effect on crop; c: corn
Method in brief: as §2

Structure (SMILES): CC1=C(c2ccccc2)C(=O)N(C(C)(C)C(=O)Nc2cccc(C(F)F)n2)CO1 [B-2-55]
- L (redroot pigweed) weedkilling efficacy grade (redroot pigweed [1]): 4 (weed kill ratio 70% or more, less than 90%)
- I (Italian ryegrass) weedkilling efficacy grade (Italian ryegrass [2]): 5 (weed kill ratio 90% or more, (practically complete withering))
- N (chickweed) weedkilling efficacy grade (chickweed [3]): 4 (weed kill ratio 70% or more, less than 90%)
- H (black-grass) weedkilling efficacy grade (black-grass [4]): 5 (weed kill ratio 90% or more, (practically complete withering))
- K (Indian mallow) weedkilling efficacy grade (Indian mallow [5]): 1 (weed kill ratio 5% or more, less than 20%)
- O (catchweed) weedkilling efficacy grade (catchweed): 5 (weed kill ratio 90% or more, (practically complete withering))
- P (birds-eye speedwell) weedkilling efficacy grade (birds-eye speedwell [6]): 5 (weed kill ratio 90% or more, (practically complete withering))
- G (wild oat) weedkilling efficacy grade (wild oat [7]): 3 (weed kill ratio 40% or more, less than 70%)
- A (barnyard grass) weedkilling efficacy grade (barnyard grass [8]): 5 (weed kill ratio 90% or more, (practically complete withering))
- b (directly sown rice) effect on crop grade (directly sown rice [9]): 4 (weed kill ratio 70% or more, less than 90%)
- a (transplanted rice) effect on crop grade (transplanted rice): 3 (weed kill ratio 40% or more, less than 70%)
- e (wheat) effect on crop grade (wheat [10]): 0 (weed kill ratio 5% or less (practically no effect))
- G (wild oat) weedkilling efficacy grade (wild oat [11]): 4 (weed kill ratio 70% or more, less than 90%)
- F (barnyard grass) weedkilling efficacy grade (barnyard grass [12]): 5 (weed kill ratio 90% or more, (practically complete withering))
- E (green foxtail) weedkilling efficacy grade (green foxtail [13]): 5 (weed kill ratio 90% or more, (practically complete withering))
- J (common wind-grass) weedkilling efficacy grade (common wind-grass [14]): 5 (weed kill ratio 90% or more, (practically complete withering))
- K (Indian mallow) weedkilling efficacy grade (Indian mallow [15]): 4 (weed kill ratio 70% or more, less than 90%)
- c (corn) effect on crop grade (corn [16]): 0 (weed kill ratio 5% or less (practically no effect))
- e (wheat) effect on crop grade (wheat [17]): 2 (weed kill ratio 20% or more, less than 40%)
- D (crabgrass) weedkilling efficacy grade (crabgrass [18]): 5 (weed kill ratio 90% or more, (practically complete withering))
- L (redroot pigweed) weedkilling efficacy grade (redroot pigweed [19]): 4 (weed kill ratio 70% or more, less than 90%)
- g (rapeseed) effect on crop grade (rapeseed [20]): 4 (weed kill ratio 70% or more, less than 90%)
- P (birds-eye speedwell) weedkilling efficacy grade (birds-eye speedwell [21]): 5 (weed kill ratio 90% or more, (practically complete withering))
- f (beet) effect on crop grade (beet [22]): 4 (weed kill ratio 70% or more, less than 90%)
- b (directly sown rice) effect on crop grade (directly sown rice [23]): 5 (weed kill ratio 90% or more, (practically complete withering))
- N (chickweed) weedkilling efficacy grade (chickweed [24]): 4 (weed kill ratio 70% or more, less than 90%)
- I (Italian ryegrass) weedkilling efficacy grade (Italian ryegrass [25]): 4 (weed kill ratio 70% or more, less than 90%)
- C (oval-leafed pondweed) weedkilling efficacy grade (oval-leafed pondweed [26]): 5 (weed kill ratio 90% or more, (practically complete withering))
- H (black-grass) weedkilling efficacy grade (black-grass [27]): 5 (weed kill ratio 90% or more, (practically complete withering))
- J (common wind-grass) weedkilling efficacy grade (common wind-grass [28]): 5 (weed kill ratio 90% or more, (practically complete withering))
- F (barnyard grass) weedkilling efficacy grade (barnyard grass [29]): 5 (weed kill ratio 90% or more, (practically complete withering))
- g (rapeseed) effect on crop grade (rapeseed [30]): 2 (weed kill ratio 20% or more, less than 40%)
- E (green foxtail) weedkilling efficacy grade (green foxtail [31]): 5 (weed kill ratio 90% or more, (practically complete withering))
- A (barnyard grass) weedkilling efficacy grade (barnyard grass [32]): 5 (weed kill ratio 90% or more, (practically complete withering))
- f (beet) effect on crop grade (beet [33]): 3 (weed kill ratio 40% or more, less than 70%)
- C (oval-leafed pondweed) weedkilling efficacy grade (oval-leafed pondweed [34]): 5 (weed kill ratio 90% or more, (practically complete withering))
- D (crabgrass) weedkilling efficacy grade (crabgrass [35]): 5 (weed kill ratio 90% or more, (practically complete withering))
- B (bulrush) weedkilling efficacy grade (bulrush [36]): 5 (weed kill ratio 90% or more, (practically complete withering))
- d (soybean) effect on crop grade (soybean [37]): 4 (weed kill ratio 70% or more, less than 90%)
- d (soybean) effect on crop grade (soybean [38]): 3 (weed kill ratio 40% or more, less than 70%)
- B (bulrush) weedkilling efficacy grade (bulrush [39]): 5 (weed kill ratio 90% or more, (practically complete withering))
- c (corn) effect on crop grade (corn [40]): 4 (weed kill ratio 70% or more, less than 90%)

From patent US9738634B2, “Heterocyclic amide compound and herbicide” (SYNGENTA PARTICIPATIONS AG, priority 2013, dated 2017)
